“Also recorded” adds a separate entry of the source. Like-named read-outs stand apart in the source and are kept apart here.
Key:
[1] = Tissue distribution of 14C-salicylamide (parent) by HPLC; type: in vivo, male Sprague-Dawley rats; conditions: for concentration at 1.5 h: rat
From the text: Forty-eight rats were divided into two groups.
The rats were anesthetized by light diethyl ether inhalation.

[2] = Tissue distribution of aspirin and its metabolites (SA, SUA, GA, DBA) by HPLC after 14C-aspirin; conditions: for Aspirin level in tissues studied (plasma, lung, liver, heart, kidney): 1.5 hours after 14C-ASA alone or with SAM, low and high doses
Method: (§1) Male adult Sprague-Dawley rats (300-325 gm) obtained from Charles River Breeding Laboratory, N. Wilmington, Mass. were quarantined for one week. All animals were identified by ear punching. Food and water were provided ad libitum. The animals were maintained on rodent lab chow diet in a controlled environment with 50% humidity and 12 hour light/dark cycle.
(§2) Forty-eight rats were divided into two groups. The first group of rats was administered ASA, SAM or their combination in a dose approximately equal (w/w) to that in the commercially available combinations, e.g., BC® formula, when administered to humans, i.e., 10 and 3 mg/kg of ASA and SAM, respectively. The second group was administered double the dosage received by the first group.
(§3) The rats were anesthetized by light diethyl ether inhalation. A blood sample of nearly 3 ml was collected by cardiac puncture 1.5 hours after oral administration. The blood was transferred to chilled polyethylene tubes containing 30 μl of 50% (w/w) potassium fluoride to prevent hydrolysis of ASA. A 300 μl aliquot was pipetted in a scintillation vial to study the distribution in whole blood. The rest of the collected blood was immediately centrifuged at 1800×g for 10 minutes at 4° C. and the plasma was decanted. 100 μl of the plasma were pipetted in a scintillation vial for measurement of the total radioactivity and the rest of the plasma was stored immediately at -70° C. for later study of the distribution of the metabolites.
Liver, kidney, plasma, lung and heart were stored at -70° C. for later study of their content of the metabolites of aspirin or salicylamide using an HPLC method. Liver, kidney and plasma of the rats treated with aspirin or the combination were also investigated for the presence of salicyl glucuronide conjugates by using HPLC and acid hydrolysis assays.
A Waters HPLC system (Waters Chromatography, Division of Millipore, Milford, Mass.) was used, consisting of: Waters 680 automated gradient controller, two model 510 pumps, model U6K universal liquid chromatography injector, Lambda Max model 481 variable wavelength UV/Vis absorbance detector, Data Module 730, 3.9 mm×15 cm NOVA-PAK 4 μm silica packing steel column, C-18 Guard-Pak, Hamilton syringes of 10, 100, and 250 μl capacity (Hamilton Co., Reno, Nev.), and Milli-Q(tm) Millipore water filtration system #CDOFO 1205 (Waters, Division of Millipore, Milford, Mass.).
1--For the analysis of ASA and its metabolites in tissues: the mobile phase was 2% acetic acid/methanol, 95:5, at a flow rate of 1.4 ml/minute.
The detection wavelength was 240 nm and the sensitivity of the detector was 0.02 AUFS (Absorbance Unit Full Scale).

[3] = Excretion study: effect of salicylamide on aspirin excretion; conditions: for Rate order of excretion of metabolites: first 24 hours, urine
Method: as §1
The dose of radiolabeled ASA administered was 5 μCi per rat. Rats were fasted overnight prior to the administration of the treatments.
Rats were gavaged with the treatment solution and were immediately placed in Silverman metabolic glass chambers (Bioserv, Inc., Frenchtown, N.J.), one rat per chamber. Rats were administered water ad libitum while food was withheld until 1.5 hours following treatment administration. Urine was collected at 8, 16, 24, 48 and 72 hours. Feces were collected in preweighed clean plastic cups at 24, 48 and 72 hours after dosing. The expired air was channeled through a series of activated charcoal tubes to trap any radiolabeled compound that is excreted via the lungs and the tubes were collected at the end of the study 72 hours after dosing.
The urine samples were collected and the volume was measured using a 10 ml graduated glass pipette. The urine was shaken, and 100 μl of each urine sample were pipetted in a scintillation vial with 15 ml of Aquasol-2 for radioactivity assessment. The rest of the urine was stored at -70° C. for later analysis of its content of salicylic acid (SA) and salicyluric acid (SUA), the major metabolites of ASA.
Fecal weight was determined for each time-point collection and deionized water was added to feces in a ratio of feces:water, 1:3 (w/w).
The activated charcoal was carefully emptied in small glass tubes and extracted with 1 ml of methanol and the tubes were then centrifuged at 1800×g for 15 minutes.
Urine was further studied for its content of the ASA metabolites, namely SA and SUA. Waters HPLC system (Waters Chromatography, Division of Millipore, Milford, Mass.) with 3.9 mm×15 cm NOVA-PAK 4 μm silica packing steel column, C-18 Guard-Pak, and Milli-Q(tm) Millipore water filtration system were used for the characterization of SA and SUA. An isocratic methodology was developed and the separation was optimal by a mobile phase of 2% acetic acid/methanol, 70:30, at a flow rate of 1 ml/min. and a detection wavelength of 240 nm. One hundred μl of the collected 8 and 16 hour urine samples were diluted with 4 ml of methanol/mobile phase mixture (1:1) while the dilution was only with 2 ml for the 24, 48 and 72 hour urine samples.
The fractions under the specific retentiontimes of SA and SUA were collected in scintillation vials containing 15 ml of the scintillation cocktail and the radioactivity content was counted. The retention times of SA and SUA were determined by injection of authentic standard solution. Corrections have been made for the quenching effect of the mobile phase.
Student-t test and one way analysis of variance (ANOVA) followed by Scheffe multiple range test were used where appropriate. The accepted level of significance of difference was p<0.05.

[4] = Tightly protein-bound 14C radioactivity after 14C-aspirin; type: in vivo, male Sprague-Dawley rats
Method: as §2, §3
The plasma tightly protein-bound activity was measured by adding 100 μl of 10% trichloroacetic acid (TCA) to 100 μl of plasma in microcentrifuge tubes and vortexing the contents for 1 minute followed by centrifugation at 1800×g for 10 minutes. The supernatant was decanted and the tubes with the pellets in them were placed in scintillation vials each containing 15 ml of Aquasol-2 scintillation fluid. […] The radioactivity in the scintillation vials was counted in Beckman LS counter.

[5] = oral 14C-ASA 10 mg/kg, alone or with SAM 3 mg/kg
[6] = rat, in vivo, po, 10 mg/kg, 72 h
[7] = 1.5 hr, oral 14C-ASA 10 mg/kg, alone or with SAM 3 mg/kg
[8] = 1.5 hr, oral 14C-ASA 20 mg/kg, alone or with SAM 6 mg/kg

SMILES: N[14C](=O)c1ccccc1O [^14 C-SAM]
- 14C-SAM in heart ([1]; 14C-SAM 3 mg/kg with or without ASA 10 mg/kg): not detected
- 14C-SAM in heart ([1]; 1.5 hours, 14C-SAM 6 mg/kg alone or 14C-SAM/ASA 6/20 mg/kg): detected in the heart
- concentration at 1.5 h ([1]; heart, oral 14C-SAM 6 mg/kg, alone or with ASA 20 mg/kg, ND = not detected, read-out: 14C-salicylamide in heart): 2.9 ± 1.7 ng/g
- concentration at 1.5 h ([1]; kidney, oral 14C-SAM 3 mg/kg, alone or with ASA 10 mg/kg, read-out: 14C-salicylamide in kidney): 152 ± 13.4 ng/g
- concentration at 1.5 h ([1]; kidney, oral 14C-SAM 6 mg/kg, alone or with ASA 20 mg/kg, read-out: 14C-salicylamide in kidney): 181 ± 18.3 ng/g
- concentration at 1.5 h ([1]; liver, oral 14C-SAM 3 mg/kg, alone or with ASA 10 mg/kg, read-out: 14C-salicylamide in liver): 16.6 ± 5.3 ng/g
- concentration at 1.5 h ([1]; liver, oral 14C-SAM 6 mg/kg, alone or with ASA 20 mg/kg, read-out: 14C-salicylamide in liver): 29.4 ± 3.3 ng/g
- concentration at 1.5 h ([1]; lung, oral 14C-SAM 3 mg/kg, alone or with ASA 10 mg/kg, read-out: 14C-salicylamide in lung): 17.1 ± 3 ng/g
- concentration at 1.5 h ([1]; lung, oral 14C-SAM 6 mg/kg, alone or with ASA 20 mg/kg, read-out: 14C-salicylamide in lung): 41.9 ± 3.9 ng/g

SMILES: NC(=O)c1ccccc1O [SAM, Salicylamide]
- Change of 14C-SA in kidney (low and high dose) and liver (high dose) ([2]; SAM with 14C-ASA): not markedly altered
- Parent SAM in plasma ([1]; 1.5 hours, 14C-SAM alone and with ASA, low and high doses): not detected
- Urinary SA, SUA and SA glucuronide, 0-8 hours ([3]; ASA coadministered with SAM vs ASA alone): higher in the urine
- Effect on urinary 14C, 0-8 hour period ([3]; SAM coadministered with 14C-ASA): increased
- Effect on urinary 14C, 8-28 hour period (so in the source) ([3]; SAM coadministered with 14C-ASA vs 14C-ASA alone): significantly decreased
- Urinary content of SA, SUA and SA glucuronide after 0-8 hours ([3]; SAM coadministration vs 14C-ASA alone): decreased
- Effect on pattern of excretion of ASA metabolites in urine ([3]; SAM with 14C-ASA, low doses): did not affect the pattern of excretion of ASA metabolites in urine
- Change of tightly protein-bound 14C, high dose ([4]; 14C-ASA with SAM 20/6 mg/kg): did not reach significant levels
- Change of tightly protein-bound 14C in kidney ([4]; low and high doses): not influenced

SMILES: CC(=O)Oc1ccccc1[14C](=O)O [^14 C-ASA]
- SUA in lung, heart, liver and plasma ([2]; 14C-ASA alone and with SAM): not detected; also recorded: The liver had no detectable level of SUA
- Difference in kidney 14C-SUA with or without SAM ([2]; low or high dose): no significant difference
- Gentisic acid and 2,3-dihydroxybenzoic acid in tissues ([2]; low or high dose): not detected
- 14C radioactivity recovered in urine ([3]; 14C-ASA alone or in combination with SAM): Almost all the ^14 C radioactivity
- SA share of the radioactivity excreted in urine ([3]; 14C-ASA alone or with SAM): more than 50%
- SUA share of the metabolites in urine ([3]; 14C-ASA alone or with SAM): approximately 15%
- 14C in expired air ([3]; 14C-ASA or 14C-CO2): No radioactivity was found
- Absorption from the gut ([3]; 14C-ASA oral): essentially a complete absorption
- Rate order of excretion of metabolites [3]: first-order rate pattern
- Urinary excretion of 14C, 0-72 hr [3, 5]: 3055 ± 23 μg ^14 C
- Urinary excretion of 14C, 8-16 hr [3, 5]: 619 ± 124 μg ^14 C
- Urinary excretion of 14C, 16-24 hr [3, 5]: 92 ± 26 μg ^14 C
- Urinary excretion of 14C, 24-48 hr [3, 5]: 60 ± 19 μg ^14 C
- Urinary excretion of 14C, 48-72 hr [3, 5]: 11 ± 3 μg ^14 C
- Urinary excretion of 14C, 0-8 hr ([3]; oral 14C-ASA 10 mg/kg, alone or with SAM 3 mg/kg, mean ± SE, n=6): 2227 ± 138 μg ^14 C
- Bioavailability of 14C ([3]; rat, in vivo, po, 10 mg/kg): 100%
- 14C excreted in feces [3, 6]: 1.0 ± 0.1 percentage of the dose
- 14C excreted in urine [3, 6]: 100.2 ± 0.8 percentage of the dose
- Recovery of the administered dose [3, 6]: 100%
- Total Recovery of 14C [3, 6]: 101.7 ± 0.8 percentage of the dose
- Tightly protein-bound 14C in heart [4, 7]: 2.30 ± 0.28 μg ^14 C/gm tissue
- Tightly protein-bound 14C in kidney [4, 7]: 3.85 ± 0.30 μg ^14 C/gm tissue
- Tightly protein-bound 14C in liver [4, 7]: 3.93 ± 0.04 μg ^14 C/gm tissue
- Tightly protein-bound 14C in lung [4, 7]: 1.62 ± 0.14 μg ^14 C/gm tissue
- Tightly protein-bound 14C in plasma [4, 7]: 26.95 ± 2.67 μg ^14 C/ml plasma
- Tightly protein-bound 14C in heart [4, 8]: 5.79 ± 0.40 μg ^14 C/gm tissue
- Tightly protein-bound 14C in kidney [4, 8]: 11.66 ± 0.29 μg ^14 C/gm tissue
- Tightly protein-bound 14C in liver [4, 8]: 9.81 ± 0.12 μg ^14 C/gm tissue
- Tightly protein-bound 14C in lung [4, 8]: 5.84 ± 0.40 μg ^14 C/gm tissue

SMILES: CC(=O)Oc1ccccc1C(=O)O [ASA, acetylsalicylic acid]
- Aspirin level in tissues studied (plasma, lung, liver, heart, kidney) [2]: not detected in the plasma
- Aspirin level in tissues studied (plasma, lung, liver, heart, kidney) ([2]; listed as aspirin): not detected
- Change of 14C-SAM in lung by ASA ([1]; low and high dose combinations): significantly lower
- Change of 14C-SAM in kidney by ASA ([1]; low dose combination): significantly reduced
- Increase of 14C-SAM in liver with ASA ([1]; lower dose combination): about 50%
- Rate order of excretion of metabolites [3]: first-order rate fashion
